Measured values: US9758517B2, “Histone demethylase inhibitors” (Quanticel Pharmaceuticals, Inc., priority 2014, dated 2017)

Target: JMJD2C (Homo sapiens (Human), UniProt Q9H3R0)
Test: In vitro enzyme inhibition assay, JMJD2C demethylase activity (TR-FRET)
Format: biochemical
Details: 0.3 nM JMJD2C, 300 nM H3K9me3-biotin peptide, 2 μM alpha-ketoglutaric acid, 30 minutes at room temperature
Description: This assay determines the ability of a test compound to inhibit JMJD2C demethylase activity. Baculovirus expressed JMJD2C (GenBank Accession #BC143571, AA 2-372) was purchased from BPS Bioscience (Cat#50105).
The ability of test compounds to inhibit the activity of JMJD2C was determined in 384-well plate format under the following reaction conditions: 0.3 nM JMJD2C, 300 nM H3K9me3-biotin labeled peptide (Anaspec cat #64360), 2 μM alpha-ketoglutaric acid in assay buffer of 50 mM HEPES, pH7.3, 0.005% Brij35, 0.5 mM TCEP, 0.2 mg/ml BSA, 50 μM sodium L-ascorbate, and 2 μM ammonium iron(II) sulfate. Reaction product was determined quantitatively by TR-FRET after the addition of detection reagent Phycolink Streptavidin-allophycocyanin (Prozyme) and Europium-anti-di-methylated histone H3 lysine 9 (H3K9me2) antibody (PerkinElmer) in the presence of 5 mM EDTA in LANCE detection buffer (PerkinElmer) at a final concentration of 50 nM and 1 nM, respectively.
The assay reaction was initiated by the following: 2 μL of the mixture of 900 nM H3K9me3-biotin labeled peptide and 6 μM alpha-ketoglutaric acid with 2 μL of 11-point serial diluted inhibitor in 3% DMSO were added to each well of the plate, followed by the addition of 2 μl of 0.9 nM JMJD2C to initiate the reaction. The reaction mixture was incubated at room temperature for 30 minutes, and terminated by the addition of 6 μL of 5 mM EDTA in LANCE detection buffer containing 100 nM Phycolink Streptavidin-allophycocyanin and 2 nM Europium-anti-H3K9me2 antibody. Plates were read by EnVisionMultilabel Reader in TR-FRET mode (excitation at 320 nm, emission at 615 nm and 665 nm) after 1 hour incubation at room temperature. A ratio was calculated (665/615) for each well and fitted to determine inhibition constant (IC50).

Chain of JMJD2C (Q9H3R0 2-372): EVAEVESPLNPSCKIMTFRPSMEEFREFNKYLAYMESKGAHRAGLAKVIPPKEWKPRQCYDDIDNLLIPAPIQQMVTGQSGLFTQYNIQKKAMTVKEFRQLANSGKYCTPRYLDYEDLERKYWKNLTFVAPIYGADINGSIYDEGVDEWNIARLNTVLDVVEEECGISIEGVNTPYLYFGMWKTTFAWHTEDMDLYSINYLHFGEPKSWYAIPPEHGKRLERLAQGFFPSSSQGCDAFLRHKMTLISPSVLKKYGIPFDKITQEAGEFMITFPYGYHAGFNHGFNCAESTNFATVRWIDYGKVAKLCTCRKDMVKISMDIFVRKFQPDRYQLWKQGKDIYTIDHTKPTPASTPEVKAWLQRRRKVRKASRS

| SMILES | IC50 [nM] |
| --- | --- |
| COc1ccc2c(-c3cc4nccc(C(=O)O)c4[nH]3)n(C)nc2c1 [Example 1, 2-(6-Methoxy-2-methyl-2H-indazol-3-yl)-1H-pyrrolo[3,2-b]pyridine-7-carboxylic acid] | 100 to 1000 |
| COc1ccc2nn(C)c(-c3cc4nccc(C(=O)O)c4[nH]3)c2c1 [Example 2, 2-(5-Methoxy-2-methyl-2H-indazol-3-yl)-1H-pyrrolo[3,2-b]pyridine-7-carboxylic acid] | 100 to 1000 |
| Cn1nc2cc(Cl)ccc2c1-c1cc2nccc(C(=O)O)c2[nH]1 [Example 3, 2-(6-Chloro-2-methyl-2H-indazol-3-yl)-1H-pyrrolo[3,2-b]pyridine-7-carboxylic acid] | 100 to 1000 |
| Cn1nc2ccc(C(F)(F)F)cc2c1-c1cc2nccc(C(=O)O)c2[nH]1 [Example 4, 2-[2-Methyl-5-(trifluoromethyl)-2H-indazol-3-yl]-1H-pyrrolo[3,2-b]pyridine-7-carboxylic acid] | 1000 to 10000 |
| Cn1nc2ccc(OC(F)(F)F)cc2c1-c1cc2nccc(C(=O)O)c2[nH]1 [Example 5, 2-[2-Methyl-5-(trifluoromethoxy)-2H-indazol-3-yl]-1H-pyrrolo[3,2-b]pyridine-7-carboxylic acid] | 1000 to 10000 |
| Cn1nc2ccc(C3CC3)cc2c1-c1cc2nccc(C(=O)O)c2[nH]1 [Example 6, 2-(5-Cyclopropyl-2-methyl-2H-indazol-3-yl)-1H-pyrrolo[3,2-b]pyridine-7-carboxylic acid] | 100 to 1000 |
| Cn1nc2ccc(Cl)cc2c1-c1cc2nccc(C(=O)O)c2[nH]1 [Example 7, 2-(5-Chloro-2-methyl-2H-indazol-3-yl)-1H-pyrrolo[3,2-b]pyridine-7-carboxylic acid] | 1000 to 10000 |
| CCn1nc2cc(Cl)ccc2c1-c1cc2nccc(C(=O)O)c2[nH]1 [Example 8, 2-(6-Chloro-2-ethyl-2H-indazol-3-yl)-1H-pyrrolo[3,2-b]pyridine-7-carboxylic acid] | 1000 to 10000 |
| O=C(O)c1ccnc2cc(-c3c4ccc(Cl)cc4nn3CC3CC3)[nH]c12 [Example 9, 2-[6-Chloro-2-(cyclopropylmethyl)-2H-indazol-3-yl]-1H-pyrrolo[3,2-b]pyridine-7-carboxylic acid] | 1000 to 10000 |
| O=C(O)c1ccnc2cc(-c3c4cc(Cl)ccc4nn3CCN3CCCC3)[nH]c12 [Example 10, 2-{5-Chloro-2-[2-(pyrrolidin-1-yl)ethyl]-2H-indazol-3-yl}-1H-pyrrolo[3,2-b]pyridine-7-carboxylic acid] | 100 to 1000 |
| CN(c1ccccc1)c1ccc2c(-c3cc4nccc(C(=O)O)c4[nH]3)n(C)nc2c1 [Example 11, 2-{2-methyl-6-[methyl(phenyl)amino]-2H-indazol-3-yl}-1H-pyrrolo[3,2-b]pyridine-7-carboxylic acid] | 100 to 1000 |
| CN(c1ccccc1)c1cccc2c(-c3cc4nccc(C(=O)O)c4[nH]3)n(C)nc12 [Example 12, 2-{2-methyl-7-[methyl(phenyl)amino]-2H-indazol-3-yl}-1H-pyrrolo[3,2-b]pyridine-7-carboxylic acid] | 1000 to 10000 |
| Cn1nc(-c2cc3nccc(C(=O)O)c3[nH]2)c2ccccc21 [Example 13, 2-(1-methyl-1H-indazol-3-yl)-1H-pyrrolo[3,2-b]pyridine-7-carboxylic acid] | 100 to 1000 |
| Cn1nc(-c2cc3nccc(C(=O)O)c3[nH]2)c2cc(F)ccc21 [Example 14, 2-(5-fluoro-1-methyl-1H-indazol-3-yl)-1H-pyrrolo[3,2-b]pyridine-7-carboxylic acid] | 100 to 1000 |
| Cn1nc(-c2cc3nccc(C(=O)O)c3[nH]2)c2ccc(Cl)cc21 [Example 15, 2-(6-chloro-1-methyl-1H-indazol-3-yl)-1H-pyrrolo[3,2-b]pyridine-7-carboxylic acid] | 100 to 1000 |
| Cn1nc(-c2cc3nccc(C(=O)O)c3[nH]2)c2ccc(F)cc21 [Example 16, 2-(6-fluoro-1-methyl-1H-indazol-3-yl)-1H-pyrrolo[3,2-b]pyridine-7-carboxylic acid] | 100 to 1000 |
| CCn1nc(-c2cc3nccc(C(=O)O)c3[nH]2)c2ccc(Cl)cc21 [Example 17, 2-(6-chloro-1-ethyl-1H-indazol-3-yl)-1H-pyrrolo[3,2-b]pyridine-7-carboxylic acid] | 1000 to 10000 |
| O=C(O)c1ccnc2cc(-c3nn(CC4CC4)c4cc(Cl)ccc34)[nH]c12 [Example 18, 2-[6-chloro-1-(cyclopropylmethyl)-1H-indazol-3-yl]-1H-pyrrolo[3,2-b]pyridine-7-carboxylic acid] | 1000 to 10000 |
| O=C(O)c1ccnc2cc(-c3nn(CC(F)(F)F)c4cc(Cl)ccc34)[nH]c12 [Example 19, 2-[6-chloro-1-(2,2,2-trifluoroethyl)-1H-indazol-3-yl]-1H-pyrrolo[3,2-b]pyridine-7-carboxylic acid] | 1000 to 10000 |
| O=C(O)c1ccnc2cc(-c3nn(CCN4CCCC4)c4ccc(Cl)cc34)[nH]c12 [Example 20, 2-{5-chloro-1-[2-(pyrrolidin-1-yl)ethyl]-1H-indazol-3-yl}-1H-pyrrolo[3,2-b]pyridine-7-carboxylic acid] | 100 to 1000 |
| O=C(O)c1ccnc2cc(-c3nn(CCN4CCOCC4)c4ccc(F)cc34)[nH]c12 [Example 21, 2-{5-fluoro-1-[2-(morpholin-4-yl)ethyl]-1H-indazol-3-yl}-1H-pyrrolo[3,2-b]pyridine-7-carboxylic acid] | 1000 to 10000 |
